# Measured values as given in patent US20240148821A1, “PHARMACEUTICAL USE OF CYCLIC PEPTIDE COMPOUND” (CHUGAI SEIYAKU KABUSHIKI KAISHA, priority 2021, published 2024).
# Numbered stars: 1 amine (or outer) side, 2 acyl side, 3 side chain; on linkers, the order of the positions; unused ones are H or OH. Bridge positions count the residues as written; N and C are the ends. Square brackets hold non-standard residues; d marks the D form. Peptide text beside a SMILES is read from it. * marks the point of attachment. hPhe(3,5-F2-4-CF3) = N[C@@H](CCc1cc(F)c(C(F)(F)F)c(F)c1)C(=O)O; hPhe(3-Cl-4-CF3) = N[C@@H](CCc1ccc(C(F)(F)F)c(Cl)c1)C(=O)O; hPhe(3-F,4-CF3) = N[C@@H](CCc1ccc(C(F)(F)F)c(F)c1)C(=O)O; NEtPhe(4-CF3) = CCN[C@@H](Cc1ccc(C(F)(F)F)cc1)C(=O)O; NMePhe(4-CF3) = CN[C@@H](Cc1ccc(C(F)(F)F)cc1)C(=O)O; X1 = O=C([C@H](CCc1ccc(OC(F)F)c(F)c1)N[*:1])[*:2]; hPhe(4-CF3) = N[C@@H](CCc1ccc(C(F)(F)F)cc1)C(=O)O; NMePhe(3-Cl) = CN[C@@H](Cc1cccc(Cl)c1)C(=O)O; NMePhe(2-Cl) = CN[C@@H](Cc1ccccc1Cl)C(=O)O; NMedβ3hAla = C[C@H](CC(=O)[*:2])N(C)[*:1]; NMeGly(cPent) = CN[C@H](C(=O)O)C1CCCC1; Phe(3-I) = N[C@@H](Cc1cccc(I)c1)C(=O)O; Pro(4,4-F2) = O=C(O)[C@@H]1CC(F)(F)CN1; Gly(cPent) = N[C@H](C(=O)O)C1CCCC1; NMeCha = CN[C@@H](CC1CCCCC1)C(=O)O; Hyp = O=C(O)[C@@H]1C[C@@H](O)CN1; NMeChg = CN[C@H](C(=O)O)C1CCCCC1; NMeT = CN[C@H](C(=O)O)[C@@H](C)O; NMeD = CN[C@@H](CC(=O)O)C(=O)O; NMeL = CN[C@@H](CC(C)C)C(=O)O; NMeV = CN[C@H](C(=O)O)C(C)C; d(β3hA) = C[C@@H](N)CC(=O)O; NMeAbu = CC[C@H](NC)C(=O)O; Morpholide = C1CN(*)CCO1; NMeA = CN[C@@H](C)C(=O)O; NMeAib = CNC(C)(C)C(=O)O; Piperidide = C1CCN(*)CC1; Pra = C#CC[C@H](N)C(=O)O; dNMeA = CN[C@H](C)C(=O)O; Ac5c = NC1(C(=O)O)CCCC1; Aze = O=C(O)[C@@H]1CCN1; Ac4c = NC1(C(=O)O)CCC1; Aib = CC(C)(N)C(=O)O; Bn = c1ccc(C*)cc1; Sar = CNCC(=O)O
# Molecular target: protein-protein interaction between Kras and SOS1 (biotin-tagged human Kras loaded with GDP, His-tagged human SOS1) (Homo sapiens (Human), UniProt P01116, G12D)
# Experiment: Protein-protein interaction inhibition between Kras and SOS1 (KrasG12D-SOS PPI) using AlphaScreen;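 also: kras produced in E. coli, Ni-coupled donor beads and streptavidin acceptor beads, excitation 680 nm with emission detected at 520–620 nm via singlet oxygen transfer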
# Assay type: biochemical
# Details: AlphaScreen; biotin-tagged human Kras loaded with GDP, His-tagged human SOS1; read-out: KRAS G12D-SOS PPI IC50
row,SMILES,IC50 [nM]
1,CC[C@H](C)[C@@H]1NC(=O)[C@H](C)N(C)C(=O)C[C@@H](C)NC(=O)[C@H](CC(C)C)N(C)C(=O)C(C)(C)NC(=O)[C@H](CC(C)C)N(C)C(=O)[C@H](CCc2ccc(C(F)(F)F)cc2)NC(=O)CN(C)C(=O)[C@H]([C@@H](C)OCc2ccccc2)N(C)C(=O)CN(C)C(=O)CN(C)C1=O [Compound 1067] (cyclo([Aib][NMeL][d(β3hA)][NMeA]I[Sar][Sar][NMeT](Bn)[Sar][hPhe(4-CF3)][NMeL])),290
2,"CC[C@H](C)[C@@H]1NC(=O)[C@H](CC(C)C)N(C)C(=O)C[C@@H](C)N(C)C(=O)[C@H](C2CCCCC2)N(C)C(=O)C2(CCC2)NC(=O)[C@@H]2CC(F)(F)CN2C(=O)[C@H](CCc2cc(F)c(C(F)(F)F)c(F)c2)NC(=O)CN(C)C(=O)[C@H](Cc2ccc(C(F)(F)F)cc2)N(CC)C(=O)[C@@H]2CCN2C(=O)[C@H](C)NC1=O [Compound 203] (cyclo(A[Aze][NEtPhe(4-CF3)][Sar][hPhe(3,5-F2-4-CF3)][Pro(4,4-F2)][Ac4c][NMeChg][NMedβ3hAla][NMeL]I))",31
3,CC[C@H](C)[C@@H]1NC(=O)[C@H](CC(C)C)N(C)C(=O)C[C@@H](C(=O)N2CCCCC2)NC(=O)[C@H](C(C)C)N(C)C(=O)C2(CCCC2)NC(=O)[C@@H]2CCCN2C(=O)[C@H](CCc2ccc(C(F)(F)F)c(Cl)c2)NC(=O)CN(C)C(=O)[C@H](CC2CCCCC2)N(C)C(=O)[C@@H]2CCN2C(=O)[C@H](C)N(C)C1=O [Compound 1353] ([NMeL]I[NMeA][Aze][NMeCha][Sar][hPhe(3-Cl-4-CF3)]P[Ac5c][NMeV]D-Piperidide; lactam N-11),11
4,CC[C@H](C)[C@@H]1NC(=O)[C@H](C)N(C)C(=O)C[C@@H](C(=O)N2CCCCC2)N(C)C(=O)[C@H](C(C)C)N(C)C(=O)C2(CCCC2)NC(=O)[C@H](Cc2cccc(Cl)c2)N(C)C(=O)[C@H](CCc2ccc(C(F)(F)F)c(Cl)c2)NC(=O)CN(C)C(=O)[C@H](CC2CCCCC2)N(C)C(=O)CN(C)C(=O)CN(C)C1=O [Compound 282] ([NMeA]I[Sar][Sar][NMeCha][Sar][hPhe(3-Cl-4-CF3)][NMePhe(3-Cl)][Ac5c][NMeV][NMeD]-Piperidide; lactam N-11),94
5,CC[C@H](C)[C@@H]1NC(=O)[C@H](CC(C)C)N(C)C(=O)C[C@@H](C)NC(=O)[C@H](C2CCCC2)N(C)C(=O)C2(CCCC2)NC(=O)[C@@H]2CCCN2C(=O)[C@H](CCc2ccc(C(F)(F)F)c(Cl)c2)NC(=O)[C@@H](C)N(C)C(=O)[C@H](CC2CCCCC2)N(C)C(=O)[C@@H]2CCN2C(=O)CN(C)C1=O [Compound 1531] (cyclo([Ac5c][NMeGly(cPent)][d(β3hA)][NMeL]I[Sar][Aze][NMeCha][dNMeA][hPhe(3-Cl-4-CF3)]P)),230
6,CC[C@H](C)[C@@H]1NC(=O)[C@H](C)N(C)C(=O)C[C@@H](C(=O)N2CCOCC2)N(C)C(=O)[C@H](C(C)C)N(C)C(=O)C2(CCCC2)NC(=O)[C@H](Cc2ccccc2Cl)N(C)C(=O)[C@H](CCc2ccc(C(F)(F)F)c(Cl)c2)NC(=O)CN(C)C(=O)[C@H](CC2CCCCC2)N(C)C(=O)CN(C)C(=O)CN(C)C1=O [Compound 2020] ([NMeA]I[Sar][Sar][NMeCha][Sar][hPhe(3-Cl-4-CF3)][NMePhe(2-Cl)][Ac5c][NMeV][NMeD]-Morpholide; lactam N-11),270
7,"CC[C@H](C)[C@@H]1NC(=O)[C@H](CC(C)C)N(C)C(=O)C[C@@H](C(=O)N2CCCCC2)N(C)C(=O)[C@H](C(C)C)N(C)C(=O)C2(CCCC2)NC(=O)[C@@H]2CCCN2C(=O)[C@H](CCc2ccc(C(F)(F)F)c(F)c2)NC(=O)CN(C)C(=O)[C@H](CC2CCCCC2)N(C)C(=O)[C@@H]2CCN2C(=O)[C@H](C)N(C)C1=O [Compound 1040] ([NMeL]I[NMeA][Aze][NMeCha][Sar][hPhe(3-F,4-CF3)]P[Ac5c][NMeV][NMeD]-Piperidide; lactam N-11)",14
8,CC[C@H](C)[C@@H]1NC(=O)[C@H](CC(C)C)N(C)C(=O)C[C@@H](C(=O)N2CCCCC2)N(C)C(=O)[C@H](C2CCCC2)N(C)C(=O)C2(CCCC2)NC(=O)[C@@H]2CCCN2C(=O)[C@H](CCc2ccc(OC(F)F)c(F)c2)NC(=O)CN(C)C(=O)[C@H](CC2CCCCC2)N(C)C(=O)[C@@H]2CCN2C(=O)[C@H](C)N(C)C1=O [Compound 2076] ([NMeL]I[NMeA][Aze][NMeCha][Sar][X1]P[Ac5c][NMeGly(cPent)][NMeD]-Piperidide; lactam N-11 (inferred); C-terminus assumed),2.5
9,C#CC[C@@H]1NC(=O)[C@H](Cc2cccc(I)c2)NC(=O)CN(C)C(=O)[C@H](Cc2ccc(C(F)(F)F)cc2)N(C)C(=O)CN(C)C(=O)CN(C)C(=O)[C@H]([C@@H](C)CC)NC(=O)[C@H](CC(C)C)N(C)C(=O)C[C@@H](C)N(C)C(=O)[C@H](CC(C)C)NC(=O)C(C)(C)N(C)C1=O [Compound 1406] (cyclo(I[Sar][Sar][NMePhe(4-CF3)][Sar][Phe(3-I)][Pra][NMeAib]L[NMedβ3hAla][NMeL])),160
10,CC[C@H](C)[C@@H]1NC(=O)[C@H](CC(C)C)N(C)C(=O)C[C@@H](C)N(C)C(=O)[C@H](C2CCCC2)N(C)C(=O)C2(CCCC2)NC(=O)[C@@H]2CCCN2C(=O)[C@H](CCc2ccc(C(F)(F)F)c(Cl)c2)NC(=O)CN(C)C(=O)[C@H](CC2CCCCC2)N(C)C(=O)[C@@H]2CCN2C(=O)[C@H](C)N(C)C1=O [Compound 1717] (cyclo([Ac5c][NMeGly(cPent)][NMedβ3hAla][NMeL]I[NMeA][Aze][NMeCha][Sar][hPhe(3-Cl-4-CF3)]P)),3.3
11,CC[C@H](C)[C@@H]1NC(=O)[C@H](C)N(C)C(=O)C[C@@H](C)NC(=O)[C@H](C(C)C)N(C)C(=O)C2(CCCC2)NC(=O)[C@@H]2CCCN2C(=O)[C@H](CCc2ccc(C(F)(F)F)c(Cl)c2)NC(=O)[C@@H](C)N(C)C(=O)[C@H](CC2CCCCC2)N(C)C(=O)[C@@H]2CCN2C(=O)[C@H](CC)N(C)C1=O [Compound 2012] (cyclo([Ac5c][NMeV][d(β3hA)][NMeA]I[NMeAbu][Aze][NMeCha][dNMeA][hPhe(3-Cl-4-CF3)]P)),200
12,CC(C)C[C@H]1C(=O)N[C@@H](C2CCCC2)C(=O)N(C)[C@@H](C)C(=O)N2CC[C@H]2C(=O)N(C)[C@@H](CC2CCCCC2)C(=O)N(C)CC(=O)N[C@@H](CCc2ccc(C(F)(F)F)c(Cl)c2)C(=O)N2CCC[C@H]2C(=O)NC2(CCCC2)C(=O)N(C)[C@@H](C(C)C)C(=O)N[C@H](C)CC(=O)N1C [Compound 966] (cyclo([Ac5c][NMeV][d(β3hA)][NMeL][Gly(cPent)][NMeA][Aze][NMeCha][Sar][hPhe(3-Cl-4-CF3)]P)),110
13,CCO[C@@H]1C[C@H]2C(=O)NC3(CCCC3)C(=O)N(C)[C@@H](C3CCCCC3)C(=O)N(C)[C@H](C)CC(=O)N(C)[C@@H](CC(C)C)C(=O)N[C@@H]([C@@H](C)CC)C(=O)N(C)[C@@H](C)C(=O)N3CC[C@H]3C(=O)N(C)[C@@H](Cc3ccc(C(F)(F)F)cc3)C(=O)N(C)CC(=O)N[C@@H](CCc3ccc(C(F)(F)F)c(Cl)c3)C(=O)N2C1 [Compound 652] (cyclo([Ac5c][NMeChg][NMedβ3hAla][NMeL]I[NMeA][Aze][NMePhe(4-CF3)][Sar][hPhe(3-Cl-4-CF3)][Hyp](Et))),4.3
14,CC[C@H](C)[C@@H]1NC(=O)[C@H](CC(C)C)N(C)C(=O)C[C@@H](C)NC(=O)[C@H](C(C)C)N(C)C(=O)C2(CCCC2)NC(=O)[C@@H]2CCCN2C(=O)[C@H](CCc2ccc(C(F)(F)F)c(Cl)c2)NC(=O)CN(C)C(=O)[C@H](CC2CCCCC2)N(C)C(=O)[C@@H]2CCN2C(=O)[C@H](CC)N(C)C1=O [Compound 1593] (cyclo([Ac5c][NMeV][d(β3hA)][NMeL]I[NMeAbu][Aze][NMeCha][Sar][hPhe(3-Cl-4-CF3)]P)),140
